Source: PubChem BioAssay (NCI)
“And” between values parts separate entries of the source, which are not always exact repeats. Identical values can stand only once.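 Exposure lasted 48 hours, with cells grown in 96-well plates and compounds tested at five concentrations. Here, GI50 denotes the concentration required for 50% inhibition of growth. TGI denotes the concentration required for complete inhibition of growth.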

Key:
Test in all cases: DTP human tumour cell line panel, 48 h
[1] = test system: A549 NSCLC
[2] = test system: ACHN renal
[3] = test system: COLO 205 colon
[4] = test system: HL-60(TB) leukemia
[5] = test system: HOP-62 NSCLC
[6] = test system: MALME-3M melanoma
[7] = test system: NCI-H522 lung
[8] = test system: OVCAR-8 ovarian
[9] = test system: RPMI-8226 leukemia
[10] = test system: HCC-2998 colon

| SMILES | TGI [1] [µM] | TGI [2] [µM] | TGI [3] [µM] | TGI [4] [µM] | TGI [5] [µM] | TGI [6] | TGI [7] [µM] | TGI [8] [µM] | TGI [9] [µM] | GI50 [1] [µM] | GI50 [3] [µM] | GI50 [10] | TGI [10] | GI50 [4] [µM] | GI50 [5] [µM] | GI50 [6] | GI50 [7] [µM] | GI50 [8] [µM] | GI50 [9] [µM] | GI50 [2] [µM] |
| --- | --- | --- | --- | --- | --- | --- | --- | --- | --- | --- | --- | --- | --- | --- | --- | --- | --- | --- | --- | --- |
| CC(C)(Br)C(=O)/C=C/c1ccccc1 | 56.7 | 6.74 | 22 | 29 | 15.6 | 10.2 µM | 0.381 | 5.2 | 3.14 |  |  |  |  |  |  |  |  |  |  |  |
| CCc1c2c(nc3cccc(N)c13)-c1cc3c(c(=O)n1C2)COC(=O)[C@]3(O)CC | 0.504 |  |  | 0.0182 | 4.29 | 2.3 µM and 3.11 µM |  | > 100 | 0.56 | 0.00817 | 0.328 | 0.0349 µM and 0.02 µM | 1.39 µM and 11.4 µM | 0.00127 | 0.00143 | 0.0448 µM and 0.011 µM | 0.00459 | 0.00224 | 0.0932 |  |
| C[C@H](CSC(=O)c1ccccc1)C(=O)N1c2ccccc2C[C@H]1C(=O)O | > 100 | > 100 | > 100 | > 100 | > 100 |  | > 100 | > 100 |  |  |  |  | > 100 µM |  |  |  |  |  |  |  |
| CCOc1ccc(NC(=O)CC2SC(N)=NC2=O)cc1 (stereo unspecified) | > 100 | > 100 | > 100 | > 100 | > 100 | > 100 µM |  | > 100 | > 100 |  |  |  | > 100 µM |  |  |  |  |  |  |  |
| C/C=C(/CCCCNCCCC)[Si](C)(C)C | 30.3 | 26.9 | 27.9 |  |  | 33.2 µM | 25.3 | 31.8 |  |  |  |  | 18.2 µM |  |  |  |  |  |  |  |
| N/N=C(\Cc1ccccc1)NN=C(N)N | > 100 | > 100 | > 100 | > 100 |  | > 100 µM | > 100 | > 100 | > 100 |  |  |  | > 100 µM |  |  |  |  |  |  |  |
| COc1cnc2c(c1)C(=O)c1c-2n(CCCN2CCCC2)c(=O)c2cc(Cl)ccc12 | 10.2 | 6.42 | 8.22 | 15.2 |  | 15.3 µM | 13.8 | 12.2 | 16.3 | 0.605 | 0.161 | 5.07 µM | 12.1 µM | 6.23 |  | 5.9 µM | 0.27 | 0.813 | 5.26 | 0.0753 |
| CN(C)C(=O)C1CCC(=C2C(=O)OC(C)(C)OC2=O)N1C (stereo unspecified) | > 100 | > 100 | > 100 |  | > 100 | > 100 µM | > 100 | > 100 |  |  |  |  | > 100 µM |  |  |  |  |  |  |  |
| CCOC(=O)N1CCN(S(=O)(=O)c2oc(-c3ccc(Cl)cc3)nc2C#N)CC1 | > 100 | 3.15 | 4.25 | 7.15 | > 100 | 3.09 µM | 3.07 | 23.3 |  | 24.9 | 2.05 | 3.15 µM | 10.8 µM | 2.14 | 13.5 | 1.67 µM | 0.956 | 3.23 |  | 1.76 |
| O=C(Nc1cc(Cl)c(Cl)cc1Cl)C(=O)C(C(=O)c1ccc(Cl)c(Cl)c1)C1OC(=O)c2ccccc21 (stereo unspecified) | > 100 | 31.7 | 33.8 | 52 | 25.3 |  | 23.3 | 28.5 | 86.7 |  |  |  | 33.6 µM |  |  |  |  |  |  |  |
